In paper PMC11879098, “Phycocyanobilin Binding and Specific Amino Acid Residues Near The Chromophore Contribute To Orange Light Perception By The Dualchrome Phytochrome Region” (Plant and Cell Physiology, 2024):

Key:
AtPhyB = biological target: T1, AtPhyB (Arabidopsis thaliana, UniProt P14713); assay: co-expression with SyHO1 and ΔN_PpPcyA in E. coli, UV-vis absorption, Zn fluorescence, acid denaturation; type: binding; settings: covalent; pH 7.5
T1 construct: gene PHYB; His-tagged, E. coli C41, band about 70 kDa, so a truncated photosensory region
T1 sequence (P14713 1-624 limits assumed): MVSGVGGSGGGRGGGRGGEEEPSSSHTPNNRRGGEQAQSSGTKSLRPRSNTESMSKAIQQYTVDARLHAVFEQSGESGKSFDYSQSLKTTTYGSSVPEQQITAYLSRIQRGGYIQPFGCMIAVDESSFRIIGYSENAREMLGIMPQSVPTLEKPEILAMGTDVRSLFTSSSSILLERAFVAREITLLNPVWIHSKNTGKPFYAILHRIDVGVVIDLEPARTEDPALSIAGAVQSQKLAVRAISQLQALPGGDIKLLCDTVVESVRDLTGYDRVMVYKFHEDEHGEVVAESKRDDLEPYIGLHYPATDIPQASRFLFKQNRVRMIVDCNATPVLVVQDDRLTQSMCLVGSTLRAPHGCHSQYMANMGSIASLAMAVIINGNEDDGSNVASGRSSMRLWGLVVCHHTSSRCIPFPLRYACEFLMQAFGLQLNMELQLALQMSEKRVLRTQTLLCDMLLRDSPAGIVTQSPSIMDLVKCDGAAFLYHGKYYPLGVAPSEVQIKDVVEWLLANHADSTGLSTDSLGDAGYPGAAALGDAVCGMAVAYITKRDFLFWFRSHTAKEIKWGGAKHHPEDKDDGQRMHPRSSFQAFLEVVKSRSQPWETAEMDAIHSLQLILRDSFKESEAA

[1] = biological target: T2, PpDUC1-N (dualchrome 1 phytochrome region) (Pycnococcus provasolii, UniProt A0A830HT85); assay: expression in PΦB-producing E. coli, UV-vis absorption; type: binding; settings: covalent; difference spectrum; possibly data of Makita et al. 2021 shown again
T2 construct: gene PPROV_000692100; N-terminal phytochrome region (includes GAF and PHY domains) of the phytochrome-cryptochrome fusion; His-tagged, E. coli C41, about 75 kDa
T2 sequence (A0A830HT85 entry or part of it): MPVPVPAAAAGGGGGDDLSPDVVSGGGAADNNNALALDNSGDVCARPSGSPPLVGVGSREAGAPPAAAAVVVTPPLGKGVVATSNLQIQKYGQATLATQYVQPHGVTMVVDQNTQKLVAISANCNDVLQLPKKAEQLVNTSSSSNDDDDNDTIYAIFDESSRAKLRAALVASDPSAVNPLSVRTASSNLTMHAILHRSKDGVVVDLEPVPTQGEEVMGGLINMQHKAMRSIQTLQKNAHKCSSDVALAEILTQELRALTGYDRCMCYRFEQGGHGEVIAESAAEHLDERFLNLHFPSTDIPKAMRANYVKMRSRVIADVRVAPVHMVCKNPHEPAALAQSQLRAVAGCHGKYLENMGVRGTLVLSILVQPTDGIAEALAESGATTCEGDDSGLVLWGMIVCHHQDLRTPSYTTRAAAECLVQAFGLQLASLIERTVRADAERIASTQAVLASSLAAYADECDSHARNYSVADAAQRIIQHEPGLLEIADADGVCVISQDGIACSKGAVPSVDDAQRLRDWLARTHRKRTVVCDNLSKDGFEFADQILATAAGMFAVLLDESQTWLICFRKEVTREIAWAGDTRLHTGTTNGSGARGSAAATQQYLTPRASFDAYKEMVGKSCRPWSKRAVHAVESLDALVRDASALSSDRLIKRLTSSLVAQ

Structure (SMILES)	co-expression with SyHO1 and ΔN_PpPcyA in E. coli, UV-vis absorption, Zn fluores (AtPhyB)	expression in PΦB-producing E. coli, UV-vis absorption [1]
CC=C1C(=Cc2[nH]c(C=C3N=C(C=C4NC(=O)C(CC)=C4C)C(C)=C3CCC(=O)O)c(CCC(=O)O)c2C)NC(=O)C1C (centres unmarked) [PCB]	difference spectrum of AtPhyB coexpressed with ΔN_PpPcyA was nearly identical to that of PCB-binding AtPhyB	
C=CC1=C(C)C(=CC2=NC(=Cc3[nH]c(C=C4NC(=O)C(C)C4=CC)c(C)c3CCC(=O)O)C(CCC(=O)O)=C2C)NC1=O (centres unmarked) [PΦB]		difference spectrum of PpDUC1-N purified from PCB-producing and PΦB-producing E. coli
